The results in this text go back to patent US8481564B2, “Inhibitors of c-fms kinase” (Janssen Pharmaceutica, N.V., priority 2006, dated 2013).

Molecules are shown by their SMILES.

One experiment deals with CSF-1R (Homo sapiens (Human), UniProt P07333). Nature of the experiment: Fluorescence polarization competition immunoassay (inhibition of CSF-1R phosphorylation of tyrosine on synthetic CSF-1R555-568 peptide). The experiment is classed as biochemical. To be noted: CSF-1R fluorescence polarization assay; 0.7 nM CSF-1R, 1 mM ATP, 308 μM peptide; mean of at least three determinations.
Sequence of CSF-1R (P07333 20-972): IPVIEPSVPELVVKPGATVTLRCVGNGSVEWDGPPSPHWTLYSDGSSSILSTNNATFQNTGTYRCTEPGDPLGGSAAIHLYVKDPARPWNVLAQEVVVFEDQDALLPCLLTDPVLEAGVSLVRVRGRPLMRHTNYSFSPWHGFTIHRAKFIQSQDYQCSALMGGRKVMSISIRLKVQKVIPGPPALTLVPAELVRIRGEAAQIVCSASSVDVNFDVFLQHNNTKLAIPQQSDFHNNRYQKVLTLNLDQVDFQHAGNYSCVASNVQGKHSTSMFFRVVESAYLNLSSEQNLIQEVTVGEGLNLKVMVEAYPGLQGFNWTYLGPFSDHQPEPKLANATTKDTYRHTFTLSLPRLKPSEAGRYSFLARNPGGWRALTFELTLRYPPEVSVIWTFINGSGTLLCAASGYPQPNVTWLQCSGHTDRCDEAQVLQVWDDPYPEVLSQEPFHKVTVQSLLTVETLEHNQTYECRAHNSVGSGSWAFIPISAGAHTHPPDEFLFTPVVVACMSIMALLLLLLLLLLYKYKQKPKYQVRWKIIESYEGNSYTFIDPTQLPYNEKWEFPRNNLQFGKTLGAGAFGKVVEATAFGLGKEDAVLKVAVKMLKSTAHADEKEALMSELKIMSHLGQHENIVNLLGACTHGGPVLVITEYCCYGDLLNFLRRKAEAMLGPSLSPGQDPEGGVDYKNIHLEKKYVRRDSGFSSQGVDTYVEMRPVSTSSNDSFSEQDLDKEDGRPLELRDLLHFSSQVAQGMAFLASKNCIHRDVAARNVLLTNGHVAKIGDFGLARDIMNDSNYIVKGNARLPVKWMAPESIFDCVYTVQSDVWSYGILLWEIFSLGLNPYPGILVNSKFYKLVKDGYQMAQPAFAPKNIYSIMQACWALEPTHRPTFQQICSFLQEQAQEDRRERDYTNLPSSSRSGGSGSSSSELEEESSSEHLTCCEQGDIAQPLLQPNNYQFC

Experiment [1] concerns mouse bone-marrow derived macrophages. The experiment is described as follows: CSF-1-driven mouse bone-marrow derived macrophages assay (BrDU incorporation). The experiment is classed as cell-based. To be noted: BMDM; CSF-1 stimulated mouse bone-marrow derived macrophages, 30 hrs culture, BrDU incorporation ELISA; read-out: mCSF driven proliferation BMDM (Mouse). The method, then: CSF-1-Driven Mouse Bone-Marrow Derived Macrophages Assay
Macrophages are derived by culturing mouse bone marrow in alpha-MEM supplemented with 10% FCS (fetal calf serum) and 50 ng/ml recombinant mouse CSF-1 in bacteriologic dishes. On the sixth day, macrophages are detached from dishes, washed, and resuspended to 0.1 million cells/ml in alpha-MEM containing 10% FCS. One hundred ul of cell suspension are distributed per well into 96 well culture plates. Wells are further supplemented with the addition of 50 ul media containing 15 ng/ml CSF-1, 3 uM Indomethacin, and 3× of a dilution series of test compounds. The cells are cultured for 30 hrs at 37° C. and 5% CO2. During the final six hours, cultures are supplemented with an additional 30 ul of media containing a 1:500 dilution of bromodeoxyuridine (BrDU). At the end of the culture period, the media is removed and replaced with […] of fixative solution for 30′@room temperature. The fixative is then dispelled from the plates and the plates allowed to air dry. Incorporation of BrDU into the fixed, dried cells is quantified using a specific ELISA (Cat X1327K) from Exalpha Corporation (Watertown Mass.). Background values are determined from wells without BrDU reagent. IC50 values are calculated based on signal from CSF-1 stimulated cells without compound present.
A general note: In an ELISA, binding on a coated surface is turned into a signal by an enzyme label.

Experimental for CSF-1R: Fluorescence Polarization Competition Immunoassay
The kinase reaction was initiated by adding 1 μL of 10 mM ATP in assay buffer. […] Positive and negative control wells were included on each plate, where 4% DMSO in assay buffer was substituted for the compound; in addition, positive control wells received 1.2 μL of 50 mM EDTA before the start of the reaction.
The plates were covered and incubated at room temperature for 80 min. Reactions were stopped by addition of 1.2 μL of 50 mM EDTA. […] The plates were covered, incubated for 30 min at room temperature, and the fluorescence polarization was read on an Analyst plate reader (Molecular Devices). […] Reported IC50 values are the mean of three of at least three determinations.

`N#CN=C1NCC(c2ccc(NC(=O)c3nc(C#N)c[nH]3)c(C3=CCCCC3)c2)CN1` (stereo not drawn) [Example 12, 4-Cyano-1H-imidazole-2-carboxylic acid[4-(2-cyanoimino-hexahydro-pyrimidin-5-yl)-2-cyclohex-1-enyl-phenyl]-amide]: the IC50 on CSF-1R worked out at 3 nM; in experiment [1] it was 40 nM. `CN1CC(c2ccc(NC(=O)c3cc(C#N)c[nH]3)c(C3=CCCCCC3)c2)CN(C)C1=O` [Example 10, 4-Cyano-1H-pyrrole-2-carboxylic acid [2-cyclohept-1-enyl-4-(1,3-dimethyl-2-oxo-hexahydro-pyrimidin-5-yl)-phenyl]-amide]: the IC50 in experiment [1] worked out at 100 nM.

Take `CS(=O)(=O)N=C1NCC(c2ccc(NC(=O)c3nc(C#N)c[nH]3)c(C3=CCCCC3)c2)CN1` (stereo not drawn) [Example 13, 4-Cyano-1H-imidazole-2-carboxylic acid[2-cyclohex-1-enyl-4(2methanesulfonylimino-hexahydro-pyrimidin-5-yl)-phenyl]-amide]: the IC50 at CSF-1R came to 2 nM; in experiment [1], 100 nM.

Turning to `N#Cc1c[nH]c(C(=O)Nc2ccc(C3CC(=O)NC(=O)C3)cc2C2=CCCCC2)n1` [Example 1, 4-Cyano-1H-imidazole-2-carboxylic acid [2-cyclohex-1-enyl-4-(2,6-dioxo-piperidin-4-yl)-phenyl]-amide], the IC50 in experiment [1] was found to be 10 nM.

Regarding `N#Cc1c[nH]c(C(=O)Nc2ccc(C3CNS(=O)(=O)NC3)cc2C2=CCCCC2)n1` [Example 5, 4-Cyano-1H-imidazole-2-carboxylic acid [2-cyclohex-1-enyl-4-(1,1-dioxo-1λ^6-[1,2,6]thiadiazinan-4-yl)-phenyl]-amide], the IC50 in experiment [1] was determined as 60 nM. Take `CN1CC(c2ccc(NC(=O)c3nc(C#N)c[nH]3)c(C3=CCCCC3)c2)CN(C)S1(=O)=O` [Example 11, 4-Cyano-1H-imidazole-2-carboxylic acid [2-cyclohex-1-enyl-4-(2,6-dimethyl-1,1-dioxo-1λ^6-[1,2,6]thiadiazinan-4-yl)-phenyl]-amide]: in experiment [1], the IC50 is 2 nM. Same read-out and setting: in the case of `CN1C(=O)CC(c2ccc(NC(=O)c3nc(C#N)c[nH]3)c(C3=CCCCC3)c2)CC1=O` [Example 14, 4-Cyano-1H-imidazole-2-carboxylic acid[2-cyclohex-1-enyl-4-(1-methyl-2,6-dioxo-piperidin-4-yl)-phenyl]-amide] it was 4 nM. As for `N#Cc1c[nH]c(C(=O)Nc2ccc(C3COC(=O)OC3)cc2C2=CCCCC2)n1` [Example 15, 4-Cyano-1H-imidazole-2-carboxylic acid[2-cyclohex-1-enyl-4-(2-oxo-[1,3]dioxan-5-yl)-phenyl]-amide], the IC50 at CSF-1R was greater than 300 nM. With `CN1CC(c2ccc(NC(=O)c3nc(C#N)c[nH]3)c(C3=CCCCCC3)c2)CN(C)C1=O` [Example 9, 4-Cyano-1H-imidazole-2-carboxylic acid [2-cyclohept-1-enyl-4-(1,3-dimethyl-2-oxo-hexahydro-pyrimidin-5-yl)-phenyl]-amide], in experiment [1], the IC50 is 5 nM. As to `N#Cc1c[nH]c(C(=O)Nc2cc(CO)c(C3CNS(=O)(=O)NC3)cc2C2=CCCCC2)n1` [Example 6, 4-Cyano-1H-imidazole-2-carboxylic acid [2-cyclohex-1-enyl-4-(1,1-dioxo-1λ^6-[1,2,6]thiadiazinan-4-yl)-5-hydroxymethyl-phenyl]-amide], the IC50 was found to be 10 nM at CSF-1R and 60 nM in experiment [1].

On to `CN1CC(c2ccc(NC(=O)c3nc(C#N)c[nH]3)c(C3=CCC(C)(C)CC3)c2)CN(C)C1=O` [Example 8, 4-Cyano-1H-imidazole-2-carboxylic acid [2-(4,4-dimethyl-cyclohex-1-enyl)-4-(1,3-dimethyl-2-oxo-hexahydro-pyrimidin-5-yl)-phenyl]-amide], for which the IC50 in experiment [1] was 3 nM. Turning to `CC1(C)CC=C(c2cc(C3CC(=O)NC(=O)C3)ccc2NC(=O)c2nc(C#N)c[nH]2)CC1` [Example 3, 4-Cyano-1H-imidazole-2-carboxylic acid [2-(4,4-dimethyl-cyclohex-1-enyl)-4-(2,6-dioxo-piperidin-4-yl)-phenyl]-amide], the IC50 in experiment [1] stood at 7 nM.
